Experimental findings from patent US20240109877A1, “PYRIMIDINES FOR DEGRADING BRUTON'S TYROSINE KINASE” (AbbVie Inc., priority 2022, published 2024) are described below.

Test [1] concerns the target BTK protein in human whole blood (Homo sapiens (Human), UniProt Q06187). Briefly: Btk protein in human whole blood MSD ELISA based assay (Btk degradation). It is filed as cell-based. The settings on record: human whole blood from healthy donors, 6 hours at 37° C., half maximal degradation concentration; read-out: hWB BTK DC50. As to the method:
Btk protein degradation was tested using an Meso Scale Discovery-ELISA system (MSD-ELISA): (1) Test compounds were added to human whole blood; (2) human whole blood cells treated with test compounds were lysed; (3) lysed cells were treated with capture antibody, an antibody to Btk; (4) lysed cells were treated with […] to Btk; and (5) lysed cells were treated with anti-mouse antibody (tagged).
Specifically, about 80 μl of fresh human whole blood from healthy donors was transferred into each well of a 96-well V-bottom plate (Costar, Cat No.3894). Using a TECANTM D300e Digital Dispenser (Tecan)), 1:4 serially diluted compounds [(8 pt assay) in DMSO solution (final 0.2%) starting at 3 μM top concentration], were added in duplicate. Thereafter, plates were placed in a 37° C. incubator and incubated for 6 hours.
At the end of incubation, 80 μl of 2× CST lysis buffer (Cell Signaling Technology, Cat No. 9803), prepared from a 10× stock solution, was added per well to lyse the blood. Plates were then sealed with a plate sealer and the samples were frozen overnight at −80° C.
Total amount of BTK protein remaining in the blood samples after compound treatment was measured using MSD-ELISA. After thawing the frozen plates, blood lysates were mixed thoroughly and transferred to small spot high-bind MSD plates (Meso Scale Discovery, Cat No. L45XB-3) and coated with capturing antibody, rabbit anti-human BTK (D3H5) (Cell Signaling Technology, Cat No. 8547CF). Thereafter, primary detection antibody, mouse anti-human BTK monoclonal antibody, (BD Biosciences, Cat No. 611117) and secondary detection antibody, anti-mouse SULFO-TAG (Meso Scale Discovery, Cat No. R32AC-1) were added. The assay plates were read on an MSD S600 plate reader by the addition of 2× MSD read buffer (Meso Scale Discovery, R92TC-1). All reagent transfers, including blood lysis, was conducted using a Biomed i7 liquid handler. From the dose response curves, DC50 values were calculated by averaging data from duplicate experiments. and Curve fitting was done by non-linear regression using GraphPad Prism. The DC50 values are reported in Table 2 in the hWB BTK DC50 (nM) column The Dmax values represent the maximum amount of BTK degradation observed upon compound treatment compared to DMSO only treated samples. The dMax (%) values are reported in Table 2 in the hWB BTK dMax (%) column.

The target in test [2] is BTK in mouse bone marrow (Mus musculus (Mouse), UniProt P35991). Briefly: Mouse Bone Marrow Assay (MSD ELISA of BTK degradation in mouse bone marrow). It is filed as in vivo. The settings on record: female C57BL/6J mice, single dose of Dose A, bone marrow collected after 24 hours, % remaining BTK in vehicle versus treated samples. As to the method:
Female C57BL/6J mice (Jackson Laboratories) were used for this study. Compounds or vehicle/control were prepped with EtOH; PEG-400; Phosal 53 MCT (10:30:60, v/v). Four mice were tested per compound or vehicle/control. On Day 1, mice were administered a single dose of Dose A. On Day 2 (after 24 hours), tissue (bone marrow) was collected from one hind leg per mouse.
An MSD (Meso Scale Discovery) ELISA (enzyme-linked immunosorbent assay) based assay was used to determine BTK degradation in mouse bone marrow. The following materials and equipment were used: 10% NP40 solution (nonionic polyoxyethylene surfactant, ThermoFisher, cat no. 28324); protease inhibitor mini tablet (Roche, cat no. 05 892 970 001); PhosphoSTOP™ tablet (Roche, cat no. 04 906 837 001); Pierce™ BCA Protein Assay Kit (Thermofisher, Cat No. 23225); Precellys® 2 mL lysing tube with 2.8 mm beads (VWR, cat no. 10032-756); Bertin Precellys® 24/Cryolys ® cooling system; 96-well MSD streptavidin pre-coated plates (MSD, cat no. L15SA-1); MSD Blocker A (MSD, cat no. R93BA-4); capture antibody, biotinylated BTK mAb (BD Biosciences, cat no. 624008; custom order); primary detection antibody, BTK RpAb (rabbit polyclonal antibody, CST, cat no. 8547S, D3H5 clone); secondary detection antibody, anti-Rabbit-Sulfo-Tag (MSD, cat no. R32AB-1); read Buffer, 4× (MSD, cat no. R92TC-1); recombinant BTK protein (Thermofisher, cat no. PR5442A); MSD Tris Wash Buffer (10×) (MSD, cat no. R61TX-1); PBS (phosphate-buffered saline); deionized water (diH2O); Lysis Buffer [0.2% NP40 in PBS+Protease Inhibitor tablet (1 tablet/10 mL)+PhosphoSTOP tablet (1 tablet/10 mL)]; 3% MSD Blocker A [MSD Blocker A+450 mL diH2O+50 mL]; and 10× MSD Tris Wash Buffer.
Lysis buffer [(PBS+0.2% NP40+PI (protease inhibitor)+PhosphoSTOP)]was prepared and put on ice until it was fully cold. Ice cold lysis buffer […] was added to each Precellys® tube containing beads and bone marrow sample. Sample tubes were transferred into Precellys® machine and homogenized using 5000 rpm -2×20 seconds. The sample lysates were centrifuged at 14,000 rpm for 20 minutes at 4° C. after homogenizing.
The protein concentration was determined using Pierce™ BCA Protein Assay Kit following manufacturer's recommended protocol. The protein normalized working solution was prepared, using 30 μg protein per sample lysate for assay.
A 300 ng/ml working stock solution of recombinant BTK protein in lysis buffer was prepared, and the sample was serially diluted at 3-fold dilution (10-point assay, highest concentration was 300 ng/mL and lowest concentration was 0.015 ng/mL)
MSD plate coating: Coating antibody (biotinylated-BTK mAb) stock solution was prepared at 1 μg/mL in PBS buffer. 50 μL/well capture antibody (Biotinylated BTK mAb) solution was added, and the plates were shaken gently at ambient temperature for two hours. The plates were washed 3 times with 1× MSD Tris Wash Buffer in a plate washer (300 μL/well), and the plates were blocked with 3% MSD Blocker A (150 μL/well). The plates were incubated for an additional 1-2 hours at ambient temperature with gentle shaking. The plates were washed 3 times with 1× MSD wash buffer using plate washer. Bone marrow lysates (30 μg) at a final volume of 50 μL/well were added into the plates. The serially diluted standard samples were added to the same plates at a final volume of 50 μL/well. The plates were incubated overnight at 4° C. with gentle shaking.
The plates were washed three times with 1× MSD wash buffer (prepared from 10× concentration buffer) using plate washer. Primary detection antibody at 50 μL/well was added (BTK RpAb; 1:1000 dilution in 1% MSD Blocker A). The plates were incubated for two hours at ambient temperature with gentle shaking. The plates were washed three times with 1× MSD wash buffer using plate washer. Anti-Rabbit-SULFO-TAG secondary antibodies (50 μl/well) were added, 1:500 diluted in 1% MSD Blocker A, and the plates were incubated for one to two hours at ambient temperature. […]

Sequence of BTK protein in human whole blood (Q06187 whole entry): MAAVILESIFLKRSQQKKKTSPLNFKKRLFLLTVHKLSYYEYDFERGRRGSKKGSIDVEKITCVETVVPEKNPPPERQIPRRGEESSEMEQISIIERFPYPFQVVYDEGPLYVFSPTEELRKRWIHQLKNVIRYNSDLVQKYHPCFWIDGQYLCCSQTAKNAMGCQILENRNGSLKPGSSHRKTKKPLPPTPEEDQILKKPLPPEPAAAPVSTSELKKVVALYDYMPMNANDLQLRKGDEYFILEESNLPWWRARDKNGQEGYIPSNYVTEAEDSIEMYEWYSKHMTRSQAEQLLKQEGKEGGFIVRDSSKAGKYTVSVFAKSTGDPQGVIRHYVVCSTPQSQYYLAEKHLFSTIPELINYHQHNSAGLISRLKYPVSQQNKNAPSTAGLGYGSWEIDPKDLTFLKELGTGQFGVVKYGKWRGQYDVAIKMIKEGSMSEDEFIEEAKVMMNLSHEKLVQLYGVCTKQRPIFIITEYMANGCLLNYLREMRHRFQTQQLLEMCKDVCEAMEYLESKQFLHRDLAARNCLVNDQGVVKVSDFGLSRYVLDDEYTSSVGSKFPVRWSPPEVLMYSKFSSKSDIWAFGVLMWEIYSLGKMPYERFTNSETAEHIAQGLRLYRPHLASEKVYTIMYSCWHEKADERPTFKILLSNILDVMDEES
Sequence of BTK in mouse bone marrow (P35991 whole entry): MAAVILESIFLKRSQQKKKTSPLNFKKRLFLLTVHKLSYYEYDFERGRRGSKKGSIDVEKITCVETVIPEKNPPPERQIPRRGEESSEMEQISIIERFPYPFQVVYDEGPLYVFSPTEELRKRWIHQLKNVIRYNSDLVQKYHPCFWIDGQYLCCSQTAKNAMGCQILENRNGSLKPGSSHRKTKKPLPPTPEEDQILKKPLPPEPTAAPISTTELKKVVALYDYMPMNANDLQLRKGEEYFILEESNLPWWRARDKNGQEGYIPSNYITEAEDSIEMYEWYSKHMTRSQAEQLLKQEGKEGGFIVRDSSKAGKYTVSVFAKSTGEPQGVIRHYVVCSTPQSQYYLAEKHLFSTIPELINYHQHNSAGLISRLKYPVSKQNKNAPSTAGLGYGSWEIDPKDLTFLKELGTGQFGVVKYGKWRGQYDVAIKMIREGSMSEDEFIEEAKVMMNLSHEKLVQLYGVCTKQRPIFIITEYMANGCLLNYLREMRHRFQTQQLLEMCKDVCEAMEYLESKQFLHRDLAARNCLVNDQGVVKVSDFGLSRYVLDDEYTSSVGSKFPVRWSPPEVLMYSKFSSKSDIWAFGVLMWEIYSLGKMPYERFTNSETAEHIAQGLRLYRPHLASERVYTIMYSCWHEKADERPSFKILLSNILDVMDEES

`Cc1c([C@@H](C)NC(=O)c2nc(C(C)(C)C)no2)ccc(-c2cc(Nc3ccc(N4CCN(CCc5ccc(N6CCC(=O)NC6=O)cc5)C[C@@H]4C)cn3)ncn2)c1F` [Example 10, 3-tert-butyl-N-[(1R)-1-{4-[6-({5-[(2S)-4-{2-[4-(2,4-dioxo-1,3-diazinan-1-yl)phenyl]ethyl}-2-methylpiperazin-1-yl]pyridin-2-yl}amino)pyrimidin-4-yl]-3-fluoro-2-methylphenyl}ethyl]-1,2,4-oxadiazole-5-carboxamide]: the DC50 in test [1] is 3.04 nM. Besides, the “Mouse Bone Marrow (%), % remaining BTK” value in test [2] is on record as 9%.
As to `Cc1c([C@@H](C)NC(=O)c2nc(C(C)(C)C)no2)ccc(-c2cc(Nc3ccc(N4CCN(CCc5ccc(N6CCC(=O)NC6=O)cc5)CC4)cn3)ncn2)c1F` [Example 11, 3-tert-butyl-N-{(1R)-1-[4-(6-{[5-(4-{2-[4-(2,4-dioxo-1,3-diazinan-1-yl)phenyl]ethyl}piperazin-1-yl)pyridin-2-yl]amino}pyrimidin-4-yl)-3-fluoro-2-methylphenyl]ethyl}-1,2,4-oxadiazole-5-carboxamide], the DC50 in test [1] is 4.31 nM. Further, the “Mouse Bone Marrow (%), % remaining BTK” value in test [2] came to 29%.
